# Laboratory results: ChEMBL document CHEMBL2150905, “Discovery of Disubstituted Imidazo[4,5-b]pyridines and Purines as Potent TrkA Inhibitors” (ACS Med Chem Lett, 2012)
# Columns and labels:
# NIH3T3 [1] = experiment: Antitumor activity against 3T3 cells overexpressing constitutively active TRKA allografted in CrTac:Ncr-Foxn1nu mouse assessed as tumor regression at 5 mg/kg, po BID for 7 days; assay type: functional
# in vivo = conditions: Han Wistar, rat, iv, 3 mg/kg
# Description: Clearance in Han Wistar rat at 10 mg/kg, po and 3 mg/kg, iv
# Mus musculus [2] = experiment: Toxicity in 3T3 cells overexpressing constitutively active TRKA allografted CrTac:Ncr-Foxn1nu mouse assessed as weight loss at 1 to 25 mg/kg, po BID for 7 days; assay type: organism-based, NIH3T3; design: dose 1-25 mg/kg, route oral; conditions: in vivo, 168 h
# NIH3T3 [3] = experiment: Antitumor activity against 3T3 cells overexpressing constitutively active TRKA allografted in CrTac:Ncr-Foxn1nu mouse assessed as tumor growth delay time at 25 mg/kg, po BID for 7 days; assay type: functional
# [4] = Oral bioavailability in Han Wistar rat at 10 mg/kg; assay type: ADME, organism-based; conditions: in vivo
# in vitro [5] = conditions: human, plasma
# Description: Fraction unbound in human plasma
# NIH3T3 [6] = experiment: animal or person; conditions: Mus musculus, NIH3T3, po, 168 h, read-out: TGI
# Description: Antitumor activity against 3T3 cells overexpressing constitutively active TRKA allografted in CrTac:Ncr-Foxn1nu mouse assessed as tumor growth inhibition at 1 mg/kg, po BID for 7 days
# in vitro [7] = conditions: rat, hepatocytes
# Description: Intrinsic clearance in rat hepatocytes assessed per million cells by LC/MS/MS analysis
# [8] = Half life in Han Wistar rat at 10 mg/kg, po and 3 mg/kg, iv; assay type: ADME, organism-based; conditions: in vivo
# physchem = conditions: buffer
# Description: Aqueous solubility of the compound
# NIH3T3 [9] = experiment: Antitumor activity against 3T3 cells overexpressing constitutively active TRKA allografted in CrTac:Ncr-Foxn1nu mouse assessed as tumor regression at 25 mg/kg, po BID for 7 days; assay type: functional
# [10] = Half life in beagle dog at 10 mg/kg, po and 2 mg/kg, iv; assay type: ADME, organism-based, Canis lupus familiaris; conditions: in vivo
# NIH3T3 [11] = experiment: Antitumor activity against 3T3 cells overexpressing constitutively active TRKA allografted in CrTac:Ncr-Foxn1nu mouse assessed as tumor stasis at 5 mg/kg, po BID for 7 days; assay type: functional
# Mus musculus [12] = experiment: Toxicity in 3T3 cells overexpressing constitutively active TRKA allografted CrTac:Ncr-Foxn1nu mouse assessed as weight loss at 1 to 5 mg/kg, po BID for 7 days; assay type: organism-based, NIH3T3; design: dose 1-5 mg/kg, route oral; conditions: in vivo, 168 h
# [13] = Clearance in beagle dog at 10 mg/kg, po and 2 mg/kg, iv; assay type: ADME, organism-based, Canis lupus familiaris; conditions: in vivo
# [14] = biological target: Voltage-gated inwardly rectifying potassium channel KCNH2 (Homo sapiens, UniProt Q12809)
# [15] = Oral bioavailability in beagle dog at 10 mg/kg; assay type: ADME, organism-based, Canis lupus familiaris; conditions: in vivo
# [16] = biological target: T1, High affinity nerve growth factor receptor (Homo sapiens, UniProt P04629); experiment: Inhibition of TrkA
# [17] = biological target: Phosphorylase b kinase gamma catalytic chain, liver/testis isoform (Homo sapiens) (UniProt P15735); experiment: Inhibition of PhKg2 at 10 uM
# [18] = biological target: Receptor-type tyrosine-protein kinase FLT3 (Homo sapiens, UniProt P36888); experiment: Inhibition of Flt3
# [19] = biological target: T2, ALK tyrosine kinase receptor (Homo sapiens, UniProt Q9UM73); experiment: Inhibition of ALK at 10 uM
# [20] = biological target: T3, Fibroblast growth factor receptor 1 (Homo sapiens, UniProt P11362); experiment: Inhibition of FGFR1
# [21] = biological target: T4, Tyrosine-protein kinase JAK2 (Homo sapiens, UniProt O60674); experiment: Inhibition of JAK2
# [22] = biological target: Muscle, skeletal receptor tyrosine-protein kinase (Homo sapiens, UniProt O15146); experiment: Inhibition of MuSk
# [23] = biological target: Tyrosine-protein kinase Lck (Homo sapiens, UniProt P06239); experiment: Inhibition of Lck
# [24] = biological target: T5, Mitogen-activated protein kinase kinase kinase 9 (Homo sapiens, UniProt P80192); experiment: Inhibition of MLK1
# [25] = biological target: T6, Serine/threonine-protein kinase WNK3 (Homo sapiens, UniProt Q9BYP7); experiment: Inhibition of WNK3
# [26] = biological target: T7, Tyrosine-protein kinase BTK (Homo sapiens, UniProt Q06187); experiment: Inhibition of BTK
# [27] = biological target: T8, Mitogen-activated protein kinase 14 (Homo sapiens, UniProt Q16539); experiment: Inhibition of SAPK2a
# [28] = biological target: T9, Tyrosine-protein kinase Fgr (Homo sapiens, UniProt P09769); experiment: Inhibition of Fgr at 10 uM
# [29] = biological target: T10, Serine/threonine-protein kinase SIK1 (Homo sapiens, UniProt P57059); experiment: Inhibition of SIK
# [30] = biological target: T7, Tyrosine-protein kinase BTK; experiment: Inhibition of BTK at 10 uM
# Focal adhesion kinase 1 [31] = biological target: T11, Focal adhesion kinase 1 (Homo sapiens, UniProt Q05397); experiment: Inhibition of FAK at 10 uM
# [32] = biological target: T12, Tyrosine-protein kinase ABL1 (Homo sapiens, UniProt P00519); experiment: Inhibition of Abl
# [33] = biological target: Receptor-type tyrosine-protein kinase FLT3 (Homo sapiens) (UniProt P36888); experiment: Inhibition of Flt3 at 10 uM
# [34] = biological target: Proto-oncogene tyrosine-protein kinase receptor Ret (Homo sapiens, UniProt P07949); experiment: Inhibition of Ret
# [35] = biological target: Testis-specific serine/threonine-protein kinase 2 (Homo sapiens) (UniProt Q96PF2); conditions: 10 uM
# Description: Inhibition of TSSK2 at 10 uM
# [36] = biological target: T2, ALK tyrosine kinase receptor; experiment: Inhibition of ALK
# [37] = biological target: T5, Mitogen-activated protein kinase kinase kinase 9; experiment: Inhibition of MLK1 at 10 uM
# [38] = biological target: T6, Serine/threonine-protein kinase WNK3; conditions: 10 uM
# Description: Inhibition of WNK3 at 10 uM
# [39] = biological target: Tyrosine-protein kinase ITK/TSK (Homo sapiens, UniProt Q08881); experiment: Inhibition of Itk
# [40] = biological target: T8, Mitogen-activated protein kinase 14; experiment: Inhibition of SAPK2a at 10 uM
# Focal adhesion kinase 1 [41] = biological target: T11, Focal adhesion kinase 1; experiment: Inhibition of FAK
# [42] = biological target: T1, High affinity nerve growth factor receptor; conditions: 10 uM
# Description: Inhibition of TrkA at 10 uM
# [43] = biological target: T12, Tyrosine-protein kinase ABL1; conditions: 10 uM
# Description: Inhibition of Abl at 10 uM
# [44] = biological target: T13, Proto-oncogene tyrosine-protein kinase Src (Homo sapiens, UniProt P12931); experiment: Inhibition of cSrc
# [45] = biological target: Phosphorylase b kinase gamma catalytic chain, liver/testis isoform (Homo sapiens, UniProt P15735); experiment: Inhibition of PhKg2
# [46] = biological target: Testis-specific serine/threonine-protein kinase 2 (Homo sapiens, UniProt Q96PF2); experiment: Inhibition of TSSK2
# [47] = biological target: T14, Vascular endothelial growth factor receptor 3 (Homo sapiens, UniProt P35916); experiment: Inhibition of FLT4
# [48] = biological target: T13, Proto-oncogene tyrosine-protein kinase Src; experiment: Inhibition of cSrc at 10 uM
# [49] = biological target: T9, Tyrosine-protein kinase Fgr; experiment: Inhibition of Fgr
# [50] = biological target: Tyrosine-protein kinase ITK/TSK (Homo sapiens) (UniProt Q08881); experiment: Inhibition of Itk at 10 uM
# [51] = biological target: T3, Fibroblast growth factor receptor 1; experiment: Inhibition of FGFR1 at 10 uM
# [52] = biological target: T14, Vascular endothelial growth factor receptor 3; experiment: Inhibition of FLT4 at 10 uM
# [53] = biological target: BDNF/NT-3 growth factors receptor (Homo sapiens, UniProt Q16620); experiment: Inhibition of TrkB
# [54] = biological target: T10, Serine/threonine-protein kinase SIK1; experiment: Inhibition of SIK at 10 uM
# [55] = biological target: T4, Tyrosine-protein kinase JAK2; experiment: Inhibition of JAK2 at 10 uM
# Sequence of Voltage-gated inwardly rectifying potassium channel KCNH2 (Q12809 whole entry): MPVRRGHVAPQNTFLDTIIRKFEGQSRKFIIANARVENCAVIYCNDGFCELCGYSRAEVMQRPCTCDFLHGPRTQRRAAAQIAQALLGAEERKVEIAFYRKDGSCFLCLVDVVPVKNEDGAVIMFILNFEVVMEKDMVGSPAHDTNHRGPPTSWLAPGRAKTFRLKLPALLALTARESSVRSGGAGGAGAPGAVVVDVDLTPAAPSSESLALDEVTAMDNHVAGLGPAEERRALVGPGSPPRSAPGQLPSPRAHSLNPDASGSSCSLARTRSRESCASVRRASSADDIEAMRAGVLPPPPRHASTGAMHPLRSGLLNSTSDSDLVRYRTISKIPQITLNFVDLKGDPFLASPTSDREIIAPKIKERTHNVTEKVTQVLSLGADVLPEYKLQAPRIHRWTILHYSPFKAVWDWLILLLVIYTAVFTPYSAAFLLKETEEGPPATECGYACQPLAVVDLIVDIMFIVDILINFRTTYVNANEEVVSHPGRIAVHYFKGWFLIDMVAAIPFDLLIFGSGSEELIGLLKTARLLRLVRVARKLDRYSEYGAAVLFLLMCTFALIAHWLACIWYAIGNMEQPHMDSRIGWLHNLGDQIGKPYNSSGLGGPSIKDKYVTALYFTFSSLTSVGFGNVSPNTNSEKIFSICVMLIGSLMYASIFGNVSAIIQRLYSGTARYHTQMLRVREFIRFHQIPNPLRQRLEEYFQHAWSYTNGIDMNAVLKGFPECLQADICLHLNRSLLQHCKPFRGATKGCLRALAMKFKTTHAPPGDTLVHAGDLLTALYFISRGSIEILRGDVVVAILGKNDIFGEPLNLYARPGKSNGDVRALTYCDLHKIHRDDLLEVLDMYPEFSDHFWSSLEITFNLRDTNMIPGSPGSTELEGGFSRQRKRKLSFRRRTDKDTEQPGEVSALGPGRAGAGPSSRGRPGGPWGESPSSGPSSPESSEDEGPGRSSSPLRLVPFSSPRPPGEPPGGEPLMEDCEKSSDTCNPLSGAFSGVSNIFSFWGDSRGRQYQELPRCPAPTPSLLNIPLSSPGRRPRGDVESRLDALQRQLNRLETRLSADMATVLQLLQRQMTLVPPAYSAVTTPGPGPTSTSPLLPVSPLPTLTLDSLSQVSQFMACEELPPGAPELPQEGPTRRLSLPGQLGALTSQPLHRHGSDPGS
# T13 sequence (P12931 2-536 limits assumed): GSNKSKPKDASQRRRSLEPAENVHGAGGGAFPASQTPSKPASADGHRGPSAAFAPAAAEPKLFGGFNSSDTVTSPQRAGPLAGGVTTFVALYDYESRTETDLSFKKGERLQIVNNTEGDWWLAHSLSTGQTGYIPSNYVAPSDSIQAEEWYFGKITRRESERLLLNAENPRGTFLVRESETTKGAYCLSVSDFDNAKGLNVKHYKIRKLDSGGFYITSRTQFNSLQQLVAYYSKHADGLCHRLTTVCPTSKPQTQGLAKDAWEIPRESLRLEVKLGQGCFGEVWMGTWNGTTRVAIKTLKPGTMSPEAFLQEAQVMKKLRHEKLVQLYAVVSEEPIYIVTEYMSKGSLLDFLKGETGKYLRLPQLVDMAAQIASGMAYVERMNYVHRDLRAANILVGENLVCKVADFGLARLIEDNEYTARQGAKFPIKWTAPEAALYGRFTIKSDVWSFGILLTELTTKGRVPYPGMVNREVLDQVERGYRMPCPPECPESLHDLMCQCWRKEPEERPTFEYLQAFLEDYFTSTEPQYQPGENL
# T6 sequence (Q9BYP7 whole entry): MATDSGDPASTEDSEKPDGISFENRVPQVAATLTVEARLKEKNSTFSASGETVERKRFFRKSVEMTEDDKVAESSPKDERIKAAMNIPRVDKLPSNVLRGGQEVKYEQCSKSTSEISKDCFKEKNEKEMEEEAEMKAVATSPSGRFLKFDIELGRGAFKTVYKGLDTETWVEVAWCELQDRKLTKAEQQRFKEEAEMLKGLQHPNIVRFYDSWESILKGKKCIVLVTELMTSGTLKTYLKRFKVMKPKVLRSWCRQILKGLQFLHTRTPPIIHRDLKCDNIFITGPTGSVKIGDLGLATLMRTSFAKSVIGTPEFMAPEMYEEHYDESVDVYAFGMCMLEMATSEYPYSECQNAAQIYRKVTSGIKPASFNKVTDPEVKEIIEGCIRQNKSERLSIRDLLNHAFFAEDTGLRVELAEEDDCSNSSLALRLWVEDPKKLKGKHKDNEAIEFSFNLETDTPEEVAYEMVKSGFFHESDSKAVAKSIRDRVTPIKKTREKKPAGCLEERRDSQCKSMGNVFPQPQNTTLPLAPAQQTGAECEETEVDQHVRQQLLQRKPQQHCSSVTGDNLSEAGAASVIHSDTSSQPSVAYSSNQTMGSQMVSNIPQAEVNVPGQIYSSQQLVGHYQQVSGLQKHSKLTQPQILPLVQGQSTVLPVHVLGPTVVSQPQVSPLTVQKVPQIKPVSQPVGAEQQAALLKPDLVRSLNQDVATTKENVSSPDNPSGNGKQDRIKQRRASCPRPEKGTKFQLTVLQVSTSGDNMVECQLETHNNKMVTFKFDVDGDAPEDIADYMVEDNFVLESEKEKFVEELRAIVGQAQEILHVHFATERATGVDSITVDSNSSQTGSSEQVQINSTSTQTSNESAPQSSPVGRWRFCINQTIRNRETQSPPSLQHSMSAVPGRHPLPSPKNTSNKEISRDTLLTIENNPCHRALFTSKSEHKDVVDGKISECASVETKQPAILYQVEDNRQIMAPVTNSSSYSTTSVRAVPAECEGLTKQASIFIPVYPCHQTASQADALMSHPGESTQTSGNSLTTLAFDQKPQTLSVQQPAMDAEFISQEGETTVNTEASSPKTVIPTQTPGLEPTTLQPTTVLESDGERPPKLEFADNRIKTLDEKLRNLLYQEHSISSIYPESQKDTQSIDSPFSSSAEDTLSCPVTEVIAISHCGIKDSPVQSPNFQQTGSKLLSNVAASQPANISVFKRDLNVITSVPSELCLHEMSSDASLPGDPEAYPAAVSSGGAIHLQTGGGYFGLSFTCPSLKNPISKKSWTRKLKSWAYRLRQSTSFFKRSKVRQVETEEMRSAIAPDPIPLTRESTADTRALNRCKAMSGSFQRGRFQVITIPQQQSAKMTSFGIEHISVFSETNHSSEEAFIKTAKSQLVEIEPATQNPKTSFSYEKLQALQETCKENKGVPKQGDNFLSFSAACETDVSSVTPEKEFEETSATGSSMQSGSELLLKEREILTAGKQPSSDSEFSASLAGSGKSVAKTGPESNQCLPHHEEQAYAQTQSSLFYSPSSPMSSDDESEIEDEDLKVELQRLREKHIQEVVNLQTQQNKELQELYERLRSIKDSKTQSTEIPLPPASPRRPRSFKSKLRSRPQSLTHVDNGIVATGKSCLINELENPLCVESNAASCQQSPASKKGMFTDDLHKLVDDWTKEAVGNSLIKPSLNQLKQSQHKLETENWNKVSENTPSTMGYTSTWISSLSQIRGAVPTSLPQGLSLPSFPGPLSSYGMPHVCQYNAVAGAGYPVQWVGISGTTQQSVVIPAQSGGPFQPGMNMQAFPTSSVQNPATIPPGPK
# T4 sequence (O60674 whole entry): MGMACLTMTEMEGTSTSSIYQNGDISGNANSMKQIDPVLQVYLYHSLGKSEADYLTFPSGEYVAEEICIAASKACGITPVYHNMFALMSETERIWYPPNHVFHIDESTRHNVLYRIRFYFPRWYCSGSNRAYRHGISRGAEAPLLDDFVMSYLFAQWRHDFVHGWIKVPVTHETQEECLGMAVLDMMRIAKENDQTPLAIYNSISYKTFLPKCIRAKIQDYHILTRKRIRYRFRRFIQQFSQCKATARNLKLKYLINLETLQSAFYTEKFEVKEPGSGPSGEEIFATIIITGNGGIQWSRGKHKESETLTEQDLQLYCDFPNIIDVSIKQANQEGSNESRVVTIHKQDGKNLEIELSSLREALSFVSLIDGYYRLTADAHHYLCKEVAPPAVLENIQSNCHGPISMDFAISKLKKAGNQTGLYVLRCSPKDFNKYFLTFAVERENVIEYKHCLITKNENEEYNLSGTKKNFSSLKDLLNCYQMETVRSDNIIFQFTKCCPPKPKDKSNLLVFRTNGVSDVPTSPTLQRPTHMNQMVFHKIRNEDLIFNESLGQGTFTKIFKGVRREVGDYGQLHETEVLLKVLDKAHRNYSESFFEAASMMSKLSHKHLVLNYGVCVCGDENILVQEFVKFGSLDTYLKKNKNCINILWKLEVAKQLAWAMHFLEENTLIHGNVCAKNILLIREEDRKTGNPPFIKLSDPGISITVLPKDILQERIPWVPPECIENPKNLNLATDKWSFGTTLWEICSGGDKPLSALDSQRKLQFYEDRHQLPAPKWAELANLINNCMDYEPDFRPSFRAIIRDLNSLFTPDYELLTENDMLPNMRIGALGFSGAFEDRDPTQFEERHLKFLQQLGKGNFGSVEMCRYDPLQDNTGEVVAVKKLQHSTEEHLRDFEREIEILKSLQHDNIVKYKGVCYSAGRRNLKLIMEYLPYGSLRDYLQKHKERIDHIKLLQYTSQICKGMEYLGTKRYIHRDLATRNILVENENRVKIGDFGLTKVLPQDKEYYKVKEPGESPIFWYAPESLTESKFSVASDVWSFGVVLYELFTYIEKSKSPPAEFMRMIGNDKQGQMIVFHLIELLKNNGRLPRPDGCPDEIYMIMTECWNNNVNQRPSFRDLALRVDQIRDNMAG
# T8 sequence (Q16539 whole entry): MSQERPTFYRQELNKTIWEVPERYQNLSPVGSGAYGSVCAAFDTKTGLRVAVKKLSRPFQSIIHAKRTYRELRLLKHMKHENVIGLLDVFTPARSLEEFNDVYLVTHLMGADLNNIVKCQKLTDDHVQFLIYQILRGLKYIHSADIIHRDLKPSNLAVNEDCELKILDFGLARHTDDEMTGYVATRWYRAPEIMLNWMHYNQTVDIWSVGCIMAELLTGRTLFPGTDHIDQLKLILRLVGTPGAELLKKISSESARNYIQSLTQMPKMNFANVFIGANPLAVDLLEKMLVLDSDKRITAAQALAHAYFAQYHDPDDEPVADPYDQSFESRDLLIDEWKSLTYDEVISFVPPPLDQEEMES
smiles,measurement,setting,value
CC(C)Oc1cc(Nc2nc3c(cc2F)ncn3[C@@H](CO)c2ccc(F)cn2)n[nH]1,Activity,NIH3T3 [1],-51%
same,clearance,in vivo,3.06 L/h/kg
same,Activity,Mus musculus [2],< 5%
same,Time,NIH3T3 [3],4 days
same,bioavailability,[4],54%
same,fraction unbound,in vitro [5],0.058
same,inhibition in vivo at 1 mg/kg,NIH3T3 [6],30%
same,hepatocyte CLint,in vitro [7],31 µL/min/1e6 cells
same,half-life,[8],1.2 h
same,solubility,physchem,220 µM
same,Activity,NIH3T3 [9],-63%
CC(C)Oc1cc(-n2cnc3ccc(N[C@@H](CO)c4ccc(F)cn4)nc32)n[nH]1,clearance,in vivo,2.76 L/h/kg
same,half-life,[10],1 h
same,bioavailability,[4],29%
same,Activity,NIH3T3 [11],-47%
same,Activity,Mus musculus [12],< 5%
same,fraction unbound,in vitro [5],0.081
same,clearance,[13],0.912 L/h/kg
same,inhibition in vivo at 1 mg/kg,NIH3T3 [6],12%
same,IC50,[14],52 µM
same,hepatocyte CLint,in vitro [7],13 µL/min/1e6 cells
same,bioavailability,[15],17%
same,half-life,[8],2.3 h
same,solubility,physchem,250 µM
CC(C)Oc1cc(-n2cnc3cnc(N[C@@H](C)c4ncc(F)cn4)nc32)n[nH]1,clearance,in vivo,7.8 L/h/kg
same,bioavailability,[4],29%
same,fraction unbound,in vitro [5],0.31
same,IC50,[14],> 32 µM
same,hepatocyte CLint,in vitro [7],24 µL/min/1e6 cells
same,half-life,[8],3.8 h
same,solubility,physchem,480 µM
Cc1cc(-n2cnc3ccc(N[C@@H](C)c4ncc(F)cn4)nc32)n[nH]1,clearance,in vivo,2.7 L/h/kg
same,bioavailability,[4],92%
same,fraction unbound,in vitro [5],0.39
same,IC50,[14],> 32 µM
same,half-life,[8],0.82 h
same,solubility,physchem,> 1000 µM
CC(C)Oc1cc(-n2cnc3ccc(N[C@@H](C)c4ccc(F)cn4)nc32)n[nH]1,IC50,[16],0.0014 µM
same,inhibition,[17],> 30%
same,IC50,[18],0.0021 µM
same,inhibition,[19],> 30%
same,IC50,[20],0.0087 µM
same,IC50,[21],0.0683 µM
same,IC50,[22],< 0.1 µM
same,IC50,[23],< 0.1 µM
same,IC50,[24],0.0443 µM
same,clearance,in vivo,2.46 L/h/kg
same,IC50,[25],0.0998 µM
same,IC50,[26],0.0035 µM
same,IC50,[27],0.0134 µM
same,inhibition,[28],> 30%
same,IC50,[29],0.0055 µM
same,inhibition,[30],> 30%
same,inhibition,Focal adhesion kinase 1 [31],> 30%
same,IC50,[32],0.0012 µM
same,inhibition,[33],> 30%
same,bioavailability,[4],6.7%
same,IC50,[34],< 0.1 µM
same,inhibition,[35],> 30%
same,IC50,[36],0.0341 µM
same,inhibition,[37],> 30%
same,fraction unbound,in vitro [5],0.06
same,inhibition,[38],> 30%
same,IC50,[39],0.0722 µM
same,inhibition,[40],> 30%
same,IC50,Focal adhesion kinase 1 [41],0.0172 µM
same,inhibition,[42],> 30%
same,inhibition,[43],> 30%
same,IC50,[44],0.0182 µM
same,IC50,[45],0.0061 µM
same,IC50,[46],0.0306 µM
same,IC50,[47],0.064 µM
same,IC50,[14],> 32 µM
same,hepatocyte CLint,in vitro [7],42 µL/min/1e6 cells
same,inhibition,[48],> 30%
same,IC50,[49],0.0022 µM
same,inhibition,[50],> 30%
same,inhibition,[51],> 30%
same,inhibition,[52],> 30%
same,half-life,[8],0.97 h
same,IC50,[53],< 0.1 µM
same,inhibition,[54],> 30%
same,inhibition,[55],> 30%
COc1cc(Nc2nc3c(cc2F)ncn3[C@@H](CO)c2ccc(F)cn2)n[nH]1,clearance,in vivo,1.98 L/h/kg
same,bioavailability,[4],41%
same,IC50,[14],> 32 µM
same,hepatocyte CLint,in vitro [7],29 µL/min/1e6 cells
same,half-life,[8],3.2 h
same,solubility,physchem,150 µM
C[C@H](Nc1ccc2ncn(-c3cc(C4CC4)[nH]n3)c2n1)c1ncc(F)cn1,clearance,in vivo,2.34 L/h/kg
same,bioavailability,[4],33%
same,fraction unbound,in vitro [5],0.16
same,hepatocyte CLint,in vitro [7],48 µL/min/1e6 cells
same,half-life,[8],1.2 h
same,solubility,physchem,590 µM
